Measurements as given in US11229618B2 (Amarin Pharmaceuticals Ireland Limited, priority 2012, dated 2022).
“Also recorded” adds a separate entry of the source.

Experiment: Phase 1 multidose pharmacokinetic study: total EPA in plasma (LC-MS/MS)
Format: in vivo, human
Settings: for Total EPA in plasma, CL/F: day 28; for mean plasma CL/F of ethyl eicosapentaenoate: human
Method: A study to characterize the pharmacokinetics of ethyl eicosapentaenoate in plasma and red blood cells after multiple-dose administration of IPE at 2 g per day and 4 g per day was performed in healthy adult male and female humans.
The study was a phase 1, open-label, randomized, multidose study in healthy, nonsmoking men and women aged>18 and ≤55 years with a body mass index (BMI)>18 and ≤30 kg/m′. Exclusion criteria included use within 6 weeks prior to randomization through study end of any lipid-altering medications or supplements, including statins, niacin at levels of greater than 200 mg/day, fibrates, ezetimibe, bile acid sequestrants, omega-3 fatty acid medications, and supplements or foods enriched with omega-3 fatty acids (no more than 2 servings of fish per week were permitted).
Following a 14-day screening period, subjects entered a 28-day treatment period and were randomized to one of four IPE dose regimen treatment groups as shown in FIG. 1. Group 1 received IPE 2 g daily (1000-mg capsules; twice-daily [BID] regimen); Group 2 received IPE 4 g daily (1000-mg capsules; BID regimen); Group 3 received IPE 2 g daily (1000-mg capsules; once-daily [QD] regimen); and Group 4 received IPE 2 g daily (500-mg capsules; BID regimen). Treatment was administered orally, with or following a meal in the morning and evening for BID regimens, or in the morning only for the QD regimen. Subjects then entered an 18-day post-treatment pharmacokinetic sampling period.
Fasting EPA concentrations were measured with a validated liquid chromatography with tandem mass spectrometry (LC-MS/MS) method in plasma and RBCs prior to the morning dose (days 1, 14, 26, 28) and at serial time points (1, 3, 5, 6, 8, 10, 12, 24, 48, 72, 120, 192, 312, and 432 hours) after the morning dose on day 28. After the last dose on day 28, EPA concentrations were followed for 18 days to estimate the expected long half-life of EPA. Total plasma EPA included all EPA forms (unesterified EPA and that incorporated in phospholipids, triacylglycerols, and cholesteryl esters). In RBCs, EPA was measured in the cell membrane, where EPA is mainly incorporated in phospholipids.
For total EPA in plasma and RBCs, lipids were isolated by acid/methanol/chloroform extraction followed by centrifugation and purified by isohexane and solid-phase extraction after confirmed complete lipid hydrolysis and transmethylation (acid/methanol, 50° C. overnight). For unesterified EPA in plasma, 25 μL of an inhibitor solution (0.5 g sodium fluoride, 1.0 g L-ascorbic acid, and 0.25 g 5-methylisoxazole-3-carboxylic acid per 10 mL water) was included per 1 mL plasma sample to prevent degradation and lipids were isolated by centrifugation after methanol/chloroform extraction (without hydrolysis or methylation) and further purified by protein precipitation and solid-phase extraction. Quantitation utilized linolenic acid as an internal standard and EPA as the standard for the calibration curve; for total plasma EPA, RBC EPA, and unesterified EPA, the lower limits of quantitation were 10 μg/mL, 5 μg/mL, and 50 ng/mL, respectively. EPA concentrations were measured at Charles River Laboratories Ltd (Elphinstone Research Center, Tranent, Edinburgh, Scotland, UK).
Unless otherwise specified, all reported parameters are based on baseline-subtracted concentrations (baseline is due to EPA derived from dietary sources).

CC/C=C\C/C=C\C/C=C\C/C=C\C/C=C\CCCC(=O)OCC [IPE, all-cis eicosa-5,8,11,14,17-pentaenoic acid ethyl ester]
dose linearity of EPA exposure (dose-normalized AUC and maximum concentration) (2 g/day vs 4 g/day (Group 1 vs. Group 2), total plasma, total RBCs, unesterified EPA): Dose linearity was observed; also recorded: dose-proportional
comparison of exposure between QD and BID regimens (2 g/day, Group 1 vs. Group 3): similarity between QD and BID regimens
comparison of exposure between 1×1000-mg and 2×500-mg formulations (2 g/day, Group 1 vs. Group 4): similarity; also recorded: comparable exposures at comparable doses
Total EPA in plasma, CL/F (Group 1: IPE 2 g/d 1 × 1000 mg BID): 776.4 mL/h
Total EPA in plasma, CL/F (Group 2: IPE 4 g/d 2 × 1000 mg BID): 683.7 mL/h
Total EPA in plasma, CL/F (Group 3: IPE 2 g/d 2 × 1000 mg QD): 867.7 mL/h
Total EPA in plasma, CL/F (Group 4: IPE 2 g/d 2 × 500 mg BID): 684.5 mL/h
mean plasma CL/F of ethyl eicosapentaenoate (about 1 g orally twice per day): about 776.4+/−256.9 mL/h
mean plasma CL/F of ethyl eicosapentaenoate (about 2 g orally twice per day): about 683.7+/−280.6 mL/h
effect of age on AUC0-24hr and maximum concentration of total and unesterified plasma EPA (graphical examination): no effect of age was observed
effect of gender on EPA exposure parameters (in vivo): no consistent gender effect was observed
